Measured values reported in patent US20240002368A1 (QILU REGOR THERAPEUTICS INC., priority 2020, published 2024).
Where two headings read alike, the source gives them in different places.

Key:
[1] = test system: STING pathway; assay: IFN β reporter assay (HTRF, 2′3′-cGAMP-stimulated THP1 cells); type: cell-based, human; details: Homo sapiens
Method: STING pathway deactivation by the compounds described herein was measured using THP1 cells. The THP1 Cells (obtained from ATCC, Cat #TIB-202) were maintained in RPMI-1640 (Gibco, Cat #22400105), 10% FBS, 1% Pen-Strep, 0.05 mM 2-mercaptoethanol. For STING activation, 2′3′-cGAMP (MW 718.38, obtained from Invivogen) was used and prepared in serum-free RPMI-1640 media. Growth media: RPMI-1640 (HEPES, glutamine), 10% FBS, 1% Pen-Strep, 0.05 mM 2-mercaptoethanol. Assay media: RPMI-1640 (HEPES, glutamine), 0.5% FBS. 2′3′-cGAMP: Dissolve 2′3′-cGAMP to 10 mM stock in H2O.
The cells were prepared and seeded at 100K, 90 μL/well with assay media in cell culture plate (Greiner 655180). The compounds were added in 96-well tissue culture plates by Tecan D300e for a final concentration of 0.00137-3 μM.
Lipo2000/3000 and 2′3′-cGAMP stock solutions were diluted respectively in serum-free RPMI-1640 media. The diluted 2′3′-cGAMP and Lipo (V/V=1:1) were mixed and stood for 15 min at room temperature. 10 μL 2,3-cGAMP/Lipofectamine (10×) was transferred to the 96-well assay plate with a final 2′3′-cGAMP concentration of 5 μM. The cell plates were centrifuged at 1000 rpm for 5 min after incubating at 37° C., 5% CO2 overnight.
All reagents (human IFN beta kit, Cisbio 62HIFNBPEG) were warmed to room temperature for at least 30 min before the assay. The instructions of the kit were followed to prepare the detection media. 14 μL of cell supernatants was transferred into their dedicated wells in 384-well plate. Then 2 μL of the activation reagent solution and 4 μL of the mixed antibody solution were added to all wells. The plate was sealed and incubated for 3 h at room temperature.
The HTRF signal was read in Envision (PerkinElmer). IFN β reporter activity was then measured. The calculated ratio is the signal at 665 nm/signal at 615 nm. IC50 values are calculated by using standard methods known in the art.

[2] = test system: Trex1−/− mice; details: given to Trex1−/− mice; cited from earlier work
[3] = THP-1, THP1 cells, 5 μM 2′3′-cGAMP, IFN β secretion inhibition, class symbols, read-out: IFN β reporter activity IC50
[4] = THP-1, read-out: IFN β reporter activity IC50

| Compound | IC50 [1, 3] [nM] | IC50 [1, 4] [nM] | also measured |
| --- | --- | --- | --- |
| CN1CCC(c2cc3c(cc2F)c(C(=O)Nc2c[nH]c4ccc(F)cc24)cn3C)CC1 [Example 116, 5-fluoro-N-(5-fluoro-1H-indol-3-yl)-1-methyl-6-(1-methyl-4-piperidyl)indole-3-carboxamide] | > 1000 |  |  |
| CN1CC=C(c2ccc3c(C(=O)Nc4c[nH]c5ccc(F)cc45)cn(C)c3c2)CC1 [Example 117] |  | > 1000 |  |
| CN1CC=C(c2cc3c(cc2Cl)c(C(=O)Nc2c[nH]c4ccc(C#N)cc24)cn3C)CC1 [Example 119, 5-chloro-N-(5-cyano-1H-indol-3-yl)-1-methyl-6-(1-methyl-3,6-dihydro-2H-pyridin-4-yl)indole-3-carboxamide] |  | > 1000 |  |
| CCN(CCO)CCCC(C)Nc1ccnc2cc(Cl)ccc12 (stereo not drawn) [hydrochloroquine] |  |  | development of experimental autoimmune myocarditis [2]: prevents |

Now from value to compound, other results behind:

| IC50 [1, 3] [nM] | Compound | IC50 [1, 4] [nM] | also measured |
| --- | --- | --- | --- |
| > 1000 | CN1CCC(c2ccc3c(C(=O)Nc4c[nH]c5ccc(F)cc45)cn(C)c3c2)CC1 [Example 118] |  |  |
| > 1000 | CN1CCC(c2cc3c(cc2Cl)c(C(=O)Nc2c[nH]c4ccc(C#N)cc24)cn3C)CC1 [Example 120, 5-chloro-N-(5-cyano-1H-indol-3-yl)-1-methyl-6-(1-methyl-4-piperidyl)indole-3-carboxamide] |  |  |
